Source: patent publication US11945765B1, “4,4′-naphthalene-1,5-diylbis(diazene-2,1-diyl)bis(2-methylphenol) as an antioxidant compound” (KING FAISAL UNIVERSITY, priority 2023, dated 2024)

Assay: DPPH radical scavenging antioxidant test
Settings: 517 nm; for Inhibition (radical scavenging inhibition): DPPH (0.75 mM), compound 3 μM in ethanol, 30 minutes in the dark
Description: The antioxidant properties of the 4,4′-naphthalene-1,5-diylbis(diazene-2,1-diyl)bis(2-methylphenol) compound were studied by adding 0.2 mL DPPH (0.75 mM)) to 4,4′-naphthalene-1,5-diylbis(diazene-2,1-diyl)bis(2-methylphenol) (III) (3 μM) in ethanol. After 30 minutes of incubation in the dark, the absorbance was read against a blank at 517 nm. Ascorbic acid (vitamin C) was used as standard antioxidants (positive control). A blank sample was prepared by 0.2 ml of DPPH in 3 mL ethanol. A negative control sample was run using ethanol instead of the sample. The radical scavenging inhibition was calculated using the following equation: […]

SMILES	Inhibition (radical scavenging inhibition) [%]	antioxidant potential compared to vitamin C (in words) (DPPH in vitro test, vitamin C as positive control)
Cc1cc(/N=N\c2cccc3c(/N=N/c4ccc(O)c(C)c4)cccc23)ccc1O [Product III, 4,4′-naphthalene-1,5-diylbis(diazene-2,1-diyl)bis(2-methylphenol)]	52	high potential as an antioxidant
O=C1O[C@H]([C@@H](O)CO)C(O)=C1O [vit c, Ascorbic acid, reference compound]	74	–
